From patent US6610744B2, “Methods of treatment with compounds having RARα receptor specific or selective activity” (Allergan, Inc., priority 1995, dated 2003)

What was measured:
RARα = target: T1, RARα (Homo sapiens, UniProt P10276); experiment: Ligand binding assay, RARα
T1 construct: made in house; host or cells: Baculovirus expression (insect cell extract)
T1 sequence (P10276 1-462): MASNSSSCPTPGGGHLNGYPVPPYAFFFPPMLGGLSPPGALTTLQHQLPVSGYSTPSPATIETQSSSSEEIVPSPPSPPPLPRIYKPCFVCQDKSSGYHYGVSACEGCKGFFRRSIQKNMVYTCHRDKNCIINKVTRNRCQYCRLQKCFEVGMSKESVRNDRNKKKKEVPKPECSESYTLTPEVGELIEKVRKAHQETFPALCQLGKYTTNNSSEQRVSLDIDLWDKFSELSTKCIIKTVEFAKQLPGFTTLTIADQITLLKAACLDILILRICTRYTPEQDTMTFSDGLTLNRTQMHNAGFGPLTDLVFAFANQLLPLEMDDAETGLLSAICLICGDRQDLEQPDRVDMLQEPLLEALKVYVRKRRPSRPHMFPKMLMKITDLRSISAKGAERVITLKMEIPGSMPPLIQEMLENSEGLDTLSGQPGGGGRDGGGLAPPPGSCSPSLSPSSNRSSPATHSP
Method: (§1) All binding assays were performed in a similar fashion. All six receptor types were derived from the expressed receptor type (RARα, β, Γ and RXRα, β, Γ) expressed in Baculovirus. Stock solutions of all compounds were prepared as 10 mM ethanol solutions and serial dilutions carried out into 1:1 DMSO; ethanol. Assay buffers consisted of the following for all six receptor assays: 8% glycerol, 120 mM KCl 8 mM Tris, 5 mM CHAPS 4 mM DTT and 0.24 mM PMSF, pH-7.4@ room temperature.
(§2) All receptor binding assays were performed in the same manner. The final assay volume was 250 μl and contained from 10-40 μg of extract protein depending on receptor being assayed along with 5 nM of [^3H] all-trans retinoic acid or 10 nM [^3H] 9-cis retinoic acid and varying concentrations of competing ligand at concentrations that ranged from 0-10^−5 M. The assays were formatted for a 96 well minitube system. Incubations were carried out at 4° C. until equilibrium was achieved. Non-specific binding was defined as that binding remaining in the presence of 1000 nM of the appropriate unlabeled retinoic acid isomer. At the end of the incubation period, 50 μl of 6.25% hydroxyapitite was added in the appropriate wash buffer. The wash buffer consisted of 100 mM KCl, 10 mM Tris and either 5 mM CHAPS (RXRα, β, Γ) or 0.5% Triton X-100 (RARα, β, Γ). The mixture was vortexed and incubated for 10 minutes at 4° C., centrifuged and the supernatant removed. The hydroxyapitite was washed three more times with the appropriate wash buffer. The receptor-ligand complex was adsorbed by the hydroxyapitite. The amount of receptor-ligand complex was determined by liquid scintillation counting of hydroxyapitite pellet.
(§3) After correcting for non-specific binding, IC50 values were determined. […] The IC50 value was determined graphically from a loglogit plot of the data. The […] were determined by application of the Cheng-Prussof equation to the IC50 values, the labeled ligand concentration and the Kd of the labeled ligand.
The results of ligand binding assay are expressed in Kd numbers. […]

RARβ = target: T2, RARβ (Homo sapiens, UniProt P10826); experiment: Ligand binding assay, RARβ
T2 construct: made in house; host or cells: Baculovirus expression (insect cell extract)
T2 sequence (P10826 1-455): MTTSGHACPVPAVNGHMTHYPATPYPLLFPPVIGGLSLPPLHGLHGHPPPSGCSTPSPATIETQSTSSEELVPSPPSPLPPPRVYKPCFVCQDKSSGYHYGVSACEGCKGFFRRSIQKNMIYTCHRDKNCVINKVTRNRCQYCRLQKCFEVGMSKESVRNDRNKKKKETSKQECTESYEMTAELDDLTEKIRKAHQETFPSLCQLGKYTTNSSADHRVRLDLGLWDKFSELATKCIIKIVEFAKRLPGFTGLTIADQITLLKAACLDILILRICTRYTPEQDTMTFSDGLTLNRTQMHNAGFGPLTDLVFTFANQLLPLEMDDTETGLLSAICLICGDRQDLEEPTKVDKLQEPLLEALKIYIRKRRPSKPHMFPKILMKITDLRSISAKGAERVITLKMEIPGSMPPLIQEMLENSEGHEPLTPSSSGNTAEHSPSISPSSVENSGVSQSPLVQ
Method: as §1, §2, §3
(§4) The results of ligand binding assay are expressed in Kd numbers. (See Cheng et al. Biochemical Pharmacology Vol. 22 pp 3099-3108, expressly incorporated herein by reference.)

RARΓ = target: T3, RARΓ (Homo sapiens, UniProt P13631); experiment: Ligand binding assay, RARΓ
T3 construct: made in house; host or cells: Baculovirus expression (insect cell extract)
T3 sequence (P13631 1-454): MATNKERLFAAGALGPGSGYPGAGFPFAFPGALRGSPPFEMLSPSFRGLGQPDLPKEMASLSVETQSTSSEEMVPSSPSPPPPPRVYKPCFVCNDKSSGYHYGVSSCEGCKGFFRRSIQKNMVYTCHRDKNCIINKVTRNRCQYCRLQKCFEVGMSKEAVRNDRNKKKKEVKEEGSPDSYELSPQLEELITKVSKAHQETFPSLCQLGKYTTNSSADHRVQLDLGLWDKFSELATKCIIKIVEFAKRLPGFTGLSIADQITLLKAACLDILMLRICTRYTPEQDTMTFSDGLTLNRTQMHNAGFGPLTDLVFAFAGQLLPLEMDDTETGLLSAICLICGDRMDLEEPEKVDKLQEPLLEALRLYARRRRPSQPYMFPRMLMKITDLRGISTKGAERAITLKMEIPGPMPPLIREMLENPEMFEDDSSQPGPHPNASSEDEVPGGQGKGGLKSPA
Method: as §1, §2, §3, §4

[1] = system: AML-193 cells (acute monocytic leukemia); experiment: AML 193 cell culture assay (3H-thymidine incorporation); type: cell-based, human; details: FIG. 2; low concentrations
Method: All trans-retinoic acid (t-RA) (Sigma Chemicals Co., St. Louis, Mo.) was stored at −70° C. Prior to each experiment the compound was dissolved in 100% ethanol at 1 mM and diluted in culture medium immediately before use. All experiments were performed in subdued light. Controls were assayed using the same concentration of ethanol as present in the experimental plates and this concentration of diluent had no effect in either assay.
AML-193 was established from the blast cells classified as M5 Acute Monocyte Leukemia. The growth factor, […] (GM-CSF) was required to establish this cell line and growth factors are necessary for its continuous proliferation in chemically defined medium. AML-193 cells were grown and maintained in Iscove's modified Dulbecco's medium supplemented with 10% fetal bovine serum, glutamine and antibiotics with 5 μg/ml insulin (Sigma Chemical Co.) and 2 ng/ml rh GM-CSF (R and D Systems). The cells were diluted to a concentration of 3×10^5/ml twice a week.
AML-193 cells were plated in a 96 well round bottom microtiter plate (Costar) at a density of 1,000 cells/well. To appropriate wells, retinoid test compounds were added at the final concentrations indicated for a final volume of 150 μl/well. The plates were incubated for 96 hours at 37° C. in a humidified atmosphere of 5% CO2 in air. Subsequently, 1 μCi of [5′-^3H]-thymidine (Amersham, U.K., 43 Ci/mmol specific activity) in 25 μl culture medium was added to each well and the cells were incubated for an additional 6 hours.
The cell lines were then processed as follows: the cellular DNA was precipitated with 10% trichloroacetic acid onto glass fiber filter mats using a SKATRON multi-well cell harvester (Skatron Instruments, Sterling Va.). Radioactivity incorporated into DNA, as a direct measurement of cell growth, was measured by liquid scintillation counting. The numbers represent the mean disintegrations per minute of incorporated thymidine from triplicate wells±SEM.

RXRα = target: T4, RXRα (Homo sapiens, UniProt P19793); experiment: Ligand binding assay, RXRα
T4 construct: made in house; host or cells: Baculovirus expression (insect cell extract)
T4 sequence (P19793 1-462): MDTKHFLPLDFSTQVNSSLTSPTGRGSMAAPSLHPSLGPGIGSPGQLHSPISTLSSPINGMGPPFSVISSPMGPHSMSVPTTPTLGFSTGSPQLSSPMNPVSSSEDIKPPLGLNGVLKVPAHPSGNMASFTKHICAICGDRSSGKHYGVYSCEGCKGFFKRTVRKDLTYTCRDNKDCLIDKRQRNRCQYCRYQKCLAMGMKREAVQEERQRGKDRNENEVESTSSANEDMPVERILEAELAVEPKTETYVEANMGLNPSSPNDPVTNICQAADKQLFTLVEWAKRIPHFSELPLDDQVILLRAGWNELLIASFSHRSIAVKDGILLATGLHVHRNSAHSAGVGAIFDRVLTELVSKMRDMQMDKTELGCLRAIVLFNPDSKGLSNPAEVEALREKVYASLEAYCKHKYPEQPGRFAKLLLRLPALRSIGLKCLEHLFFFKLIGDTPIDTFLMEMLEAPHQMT
Method: as §1, §2, §3, §4

RXRβ = target: T5, RXRβ (Homo sapiens, UniProt P28702); experiment: Ligand binding assay, RXRβ
T5 construct: made in house; host or cells: Baculovirus expression (insect cell extract)
T5 sequence (P28702 1-533): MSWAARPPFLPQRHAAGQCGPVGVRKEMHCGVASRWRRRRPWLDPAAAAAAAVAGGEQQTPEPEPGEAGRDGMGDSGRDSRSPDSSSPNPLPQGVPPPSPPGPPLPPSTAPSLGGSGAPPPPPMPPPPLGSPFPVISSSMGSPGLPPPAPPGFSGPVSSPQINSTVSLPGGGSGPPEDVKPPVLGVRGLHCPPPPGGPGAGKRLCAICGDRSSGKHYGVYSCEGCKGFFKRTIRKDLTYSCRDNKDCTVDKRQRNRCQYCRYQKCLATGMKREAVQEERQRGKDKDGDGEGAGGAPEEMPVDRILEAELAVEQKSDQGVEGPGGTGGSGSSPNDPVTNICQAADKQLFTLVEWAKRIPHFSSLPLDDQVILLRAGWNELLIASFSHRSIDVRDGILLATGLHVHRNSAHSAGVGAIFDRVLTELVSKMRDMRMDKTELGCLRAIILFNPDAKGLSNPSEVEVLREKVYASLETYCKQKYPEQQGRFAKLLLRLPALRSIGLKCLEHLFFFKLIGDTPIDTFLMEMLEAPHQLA
Method: as §1, §2, §3, §4

RXRΓ = target: T6, RXRΓ (Homo sapiens, UniProt P48443); experiment: Ligand binding assay, RXRΓ
T6 construct: made in house; host or cells: Baculovirus expression (insect cell extract)
T6 sequence (P48443 1-463): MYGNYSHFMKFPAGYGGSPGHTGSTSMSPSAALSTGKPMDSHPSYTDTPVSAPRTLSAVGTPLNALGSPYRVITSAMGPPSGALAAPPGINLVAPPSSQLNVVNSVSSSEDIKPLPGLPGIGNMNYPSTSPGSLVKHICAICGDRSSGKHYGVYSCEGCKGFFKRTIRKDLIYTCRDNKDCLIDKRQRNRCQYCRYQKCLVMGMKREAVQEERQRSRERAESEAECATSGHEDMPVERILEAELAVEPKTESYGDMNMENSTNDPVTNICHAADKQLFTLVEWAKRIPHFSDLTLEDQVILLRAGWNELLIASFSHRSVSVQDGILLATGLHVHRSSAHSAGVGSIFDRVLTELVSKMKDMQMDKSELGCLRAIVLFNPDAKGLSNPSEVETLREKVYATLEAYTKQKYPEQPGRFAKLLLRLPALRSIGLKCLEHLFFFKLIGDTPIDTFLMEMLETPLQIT
Method: as §1, §2, §3, §4

Kd (RARβ) [µM] | Kd (RARΓ) [µM] | Kd (RXRα) [µM] | Kd (RXRβ) [µM] | Kd (RXRΓ) [µM] | Compound | Kd (RARα) [µM] | growth of AML 193 cells at low concentrations [1]
> 1 | > 1 | > 1 | > 1 | > 1 | CC(C)(C)c1cc(C(=O)Nc2ccc(C(=O)O)c([N+](=O)[O-])c2)cc(C(C)(C)C)n1 [Compound 54] | – | –
> 1 | > 1 | > 1 | > 1 | > 1 | CC(C)(C)c1cc(C(=O)Nc2cc(F)c(C(=O)O)c(F)c2)cc(C(C)(C)C)n1 [Compound 50] | – | –
> 1 | > 1 | > 1 | > 1 | > 1 | CC(C)(C)c1cc(C(=O)Nc2cc(F)c(C(=O)O)c(F)c2)cc(C(C)(C)C)c1 [Compound 52] | – | –
0.034 | 0.077 | – | – | – | CC1(C)CC=C(C#N)c2cc(C#Cc3ccc(C(=O)O)cc3)ccc21 [AGN 193090, 4-[(8-cyano-5,6-dihydro-5,5-dimethylnaphth-2-yl)ethynyl]benzoic acid, reference compound] | 0.109 | do not inhibit but rather at these low concentrations even stimulate such cell growth
– | – | – | – | – | CC1(C)CCC(C)(C)c2c1cc(C(=O)Nc1ccc(C(=O)O)c(F)c1)c(O)c2Br [Compound 30] | < 0.003 | –

Compound | Kd (RARβ) [µM] | Kd (RARΓ) [µM] | Kd (RXRα) [µM] | Kd (RXRβ) [µM] | Kd (RXRΓ) [µM] | Kd (RARα) [µM] | growth of AML 193 cells at low concentrations [1]
CC(C)(C)C=C1CCC(C)(C)c2ccc(C#Cc3ccc(C(=O)O)cc3)cc21 [AGN 193459, 4-[(5,6-dihydro-5,5-dimethylnaphth-7(6H)-8-(1-2,2-dimethylpropylidene)naphth-2-yl)ethynyl]benzoic acid, reference compound] | 0.002 | 0.007 | – | – | – | 0.006 | do not inhibit but rather at these low concentrations even stimulate such cell growth
2-Fluoro-4-[(3′,5′-di-t-butyl)phenylcarbamoyl]benzoic acid [Compound 46] | – | – | > 1 | > 1 | > 1 | – | –
